Source: patent publication US20240158446A1, “CYCLIC COMPOUND HAVING SELECTIVE INHIBITORY ACTION ON KRAS OVER HRAS AND NRAS” (CHUGAI SEIYAKU KABUSHIKI KAISHA, priority 2021, published 2024)

How the values were obtained:
[1] = biological target: GDP-bound KRAS wild-type protein (Homo sapiens, UniProt P01116); test: Binding to KRAS by surface plasmon resonance (SPR), Single Cycle Kinetics; conditions: SPR Single Cycle Kinetics, GDP-bound KRAS wild-type protein, 1:1 binding model; read-out: KRAS KD
[2] = biological target: GDP-bound NRAS wild-type protein (Homo sapiens, UniProt P01111); test: Binding to NRAS by surface plasmon resonance (SPR), Single Cycle Kinetics; conditions: SPR, GDP-bound NRAS wild-type protein vs GDP-bound KRAS wild-type protein
[3] = biological target: GDP-bound HRAS wild-type protein (Homo sapiens, UniProt P01112); test: Binding to HRAS by surface plasmon resonance (SPR), Single Cycle Kinetics; conditions: SPR, GDP-bound HRAS wild-type protein vs GDP-bound KRAS wild-type protein
GDP-bound HRAS wild-type protein, sequence (P01112 whole entry): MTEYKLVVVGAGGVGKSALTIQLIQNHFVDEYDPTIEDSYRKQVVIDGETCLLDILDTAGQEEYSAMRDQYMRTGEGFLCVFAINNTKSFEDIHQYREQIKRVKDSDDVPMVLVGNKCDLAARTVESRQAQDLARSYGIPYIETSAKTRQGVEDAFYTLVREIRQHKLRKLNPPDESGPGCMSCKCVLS

GDP-bound KRAS wild-type protein, sequence (P01116 whole entry): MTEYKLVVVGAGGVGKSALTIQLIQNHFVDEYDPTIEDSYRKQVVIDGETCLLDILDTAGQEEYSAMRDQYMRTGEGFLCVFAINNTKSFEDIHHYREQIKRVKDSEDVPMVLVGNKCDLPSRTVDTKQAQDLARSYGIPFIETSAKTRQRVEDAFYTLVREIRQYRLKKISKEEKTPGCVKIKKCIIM
GDP-bound NRAS wild-type protein, sequence (P01111 whole entry): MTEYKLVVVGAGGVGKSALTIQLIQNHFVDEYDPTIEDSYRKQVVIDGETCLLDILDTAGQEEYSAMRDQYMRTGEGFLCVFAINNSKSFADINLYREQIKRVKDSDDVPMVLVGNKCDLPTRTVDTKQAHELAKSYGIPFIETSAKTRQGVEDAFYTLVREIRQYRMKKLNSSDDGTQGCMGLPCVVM

SMILES | Kd [1] [nM] | NRAS/KRAS (ratio of KD value with respect to NRAS to KD value with respect to KRAS) [2] | HRAS/KRAS (ratio of KD value with respect to HRAS to KD value with respect to KRAS) [3]
CC[C@H](C)[C@@H]1NC(=O)[C@H](CC(C)C)N(C)C(=O)C[C@@H](C(=O)N(C)C)N(C)C(=O)[C@H](C2CCCC2)N(C)C(=O)C2(CCC2)NC(=O)[C@@H]2CCCN2C(=O)[C@H](CCc2cc(F)c(C(F)(F)F)c(F)c2)NC(=O)CN(C)C(=O)[C@H](Cc2ccc(C(F)(F)F)cc2)N2CCCC[C@@H](C2=O)N(C)C(=O)CN(C)C1=O [PP0574] | 0.026 | C (A compound having a KD ratio of 0.1 or more and less than 3 is denoted as C) | B (a compound having 3 or more and less than 10 is denoted as B)
CC[C@H](C)[C@@H]1NC(=O)[C@H](CC(C)C)N(C)C(=O)C[C@@H](C(=O)N2CCOCC2)N(C)C(=O)[C@H](C2CCCC2)N(C)C(=O)C2(CCC2)NC(=O)[C@@H]2CC(F)(F)CN2C(=O)[C@H](CCc2cc(F)c(C(F)(F)F)c(F)c2)NC(=O)CN(C)C(=O)[C@H](Cc2ccc(C(F)(F)F)cc2)N2CCCC[C@@H](C2=O)N(C)C(=O)CN(C)C1=O [PP0575] | 0.023 | B (a compound having 3 or more and less than 10 is denoted as B) | B (a compound having 3 or more and less than 10 is denoted as B)
CC[C@H](C)[C@@H]1NC(=O)[C@H](CC(C)C)N(C)C(=O)C[C@@H](C(=O)N(C)C)N(C)C(=O)[C@H](C2CCCC2)N(C)C(=O)C2(CCCC2)NC(=O)[C@@H]2CC(F)(F)CN2C(=O)[C@H](CCc2cc(F)c(C(F)(F)F)c(F)c2)NC(=O)CN(C)C(=O)[C@H](Cc2ccc(C(F)(F)F)cc2)N2CCCC[C@@H](C2=O)N(C)C(=O)CN(C)C1=O [PP0576] | 0.019 | C (A compound having a KD ratio of 0.1 or more and less than 3 is denoted as C) | B (a compound having 3 or more and less than 10 is denoted as B)
CC[C@H](C)[C@@H]1NC(=O)[C@H](CC(C)C)N(C)C(=O)C[C@@H](C(=O)N(C)C)N(C)C(=O)[C@H](C2CCCC2)N(C)C(=O)C2(CCC2)NC(=O)[C@@H]2CC(F)(F)CN2C(=O)[C@H](CCc2cc(F)c(C(F)(F)F)c(F)c2)NC(=O)CN(C)C(=O)[C@H](Cc2ccc(C(F)(F)F)cc2)N2CCCC[C@@H](C2=O)N(C)C(=O)CN(C)C1=O [PP0577] | 0.019 | C (A compound having a KD ratio of 0.1 or more and less than 3 is denoted as C) | C (A compound having a KD ratio of 0.1 or more and less than 3 is denoted as C)
CCO[C@@H]1C[C@H]2C(=O)NC3(CCC3)C(=O)N(C)[C@@H](C3CCCC3)C(=O)N(C)[C@H](C(=O)N3CCOCC3)CC(=O)N(C)[C@@H](CC(C)C)C(=O)N[C@@H]([C@@H](C)CC)C(=O)N(C)CC(=O)N(C)[C@H]3CCCCN(C3=O)[C@@H](Cc3ccc(C(F)(F)F)cc3)C(=O)N(C)CC(=O)N[C@@H](CCc3cc(F)c(C(F)(F)F)c(F)c3)C(=O)N2C1 [PP0578] | 0.029 | B (a compound having 3 or more and less than 10 is denoted as B) | B (a compound having 3 or more and less than 10 is denoted as B)
CCO[C@@H]1C[C@H]2C(=O)NC3(CCCC3)C(=O)N(C)[C@@H](C3CCCC3)C(=O)N(C)[C@H](C(=O)N(C)C)CC(=O)N(C)[C@@H](CC(C)C)C(=O)N[C@@H]([C@@H](C)CC)C(=O)N(C)CC(=O)N(C)[C@H]3CCCCN(C3=O)[C@@H](Cc3ccc(C(F)(F)F)cc3)C(=O)N(C)CC(=O)N[C@@H](CCc3cc(F)c(C(F)(F)F)c(F)c3)C(=O)N2C1 [PP0579] | 0.017 | C (A compound having a KD ratio of 0.1 or more and less than 3 is denoted as C) | B (a compound having 3 or more and less than 10 is denoted as B)
CCO[C@@H]1C[C@H]2C(=O)NC3(CCC3)C(=O)N(C)[C@@H](C3CCCC3)C(=O)N(C)[C@H](C(=O)N(C)C)CC(=O)N(C)[C@@H](CC(C)C)C(=O)N[C@@H]([C@@H](C)CC)C(=O)N(C)CC(=O)N(C)[C@H]3CCCCN(C3=O)[C@@H](Cc3ccc(C(F)(F)F)cc3)C(=O)N(C)CC(=O)N[C@@H](CCc3cc(F)c(C(F)(F)F)c(F)c3)C(=O)N2C1 [PP0580] | 0.015 | C (A compound having a KD ratio of 0.1 or more and less than 3 is denoted as C) | C (A compound having a KD ratio of 0.1 or more and less than 3 is denoted as C)
CC[C@H](C)[C@@H]1NC(=O)[C@H](C)N(C)C(=O)C[C@@H](C(=O)N(C)C)N(C)C(=O)[C@H](C2CCCC2)N(C)C(=O)C2(CCC2)NC(=O)[C@@H]2CCCN2C(=O)[C@H](CCc2cc(F)c(C(F)(F)F)c(F)c2)NC(=O)CN(C)C(=O)[C@H](Cc2ccc(C(F)(F)F)cc2)N2CCCC[C@@H](C2=O)N(C)C(=O)CN(C)C1=O [PP0581] | 0.02 | C (A compound having a KD ratio of 0.1 or more and less than 3 is denoted as C) | B (a compound having 3 or more and less than 10 is denoted as B)
CC[C@H](C)[C@@H]1NC(=O)[C@H](C)N(C)C(=O)C[C@@H](C(=O)N2CCOCC2)N(C)C(=O)[C@H](C2CCCC2)N(C)C(=O)C2(CCC2)NC(=O)[C@@H]2CC(F)(F)CN2C(=O)[C@H](CCc2cc(F)c(C(F)(F)F)c(F)c2)NC(=O)CN(C)C(=O)[C@H](Cc2ccc(C(F)(F)F)cc2)N2CCCC[C@@H](C2=O)N(C)C(=O)CN(C)C1=O [PP0582] | 0.02 | C (A compound having a KD ratio of 0.1 or more and less than 3 is denoted as C) | B (a compound having 3 or more and less than 10 is denoted as B)
CC[C@H](C)[C@@H]1NC(=O)[C@H](C)N(C)C(=O)C[C@@H](C(=O)N(C)C)N(C)C(=O)[C@H](C2CCCC2)N(C)C(=O)C2(CCCC2)NC(=O)[C@@H]2CC(F)(F)CN2C(=O)[C@H](CCc2cc(F)c(C(F)(F)F)c(F)c2)NC(=O)CN(C)C(=O)[C@H](Cc2ccc(C(F)(F)F)cc2)N2CCCC[C@@H](C2=O)N(C)C(=O)CN(C)C1=O [PP0583] | 0.019 | C (A compound having a KD ratio of 0.1 or more and less than 3 is denoted as C) | C (A compound having a KD ratio of 0.1 or more and less than 3 is denoted as C)
CC[C@H](C)[C@@H]1NC(=O)[C@H](C)N(C)C(=O)C[C@@H](C(=O)N(C)C)N(C)C(=O)[C@H](C2CCCC2)N(C)C(=O)C2(CCC2)NC(=O)[C@@H]2CC(F)(F)CN2C(=O)[C@H](CCc2cc(F)c(C(F)(F)F)c(F)c2)NC(=O)CN(C)C(=O)[C@H](Cc2ccc(C(F)(F)F)cc2)N2CCCC[C@@H](C2=O)N(C)C(=O)CN(C)C1=O [PP0584] | 0.0077 | C (A compound having a KD ratio of 0.1 or more and less than 3 is denoted as C) | C (A compound having a KD ratio of 0.1 or more and less than 3 is denoted as C)
CCO[C@@H]1C[C@H]2C(=O)NC3(CCC3)C(=O)N(C)[C@@H](C3CCCC3)C(=O)N(C)[C@H](C(=O)N3CCOCC3)CC(=O)N(C)[C@@H](C)C(=O)N[C@@H]([C@@H](C)CC)C(=O)N(C)CC(=O)N(C)[C@H]3CCCCN(C3=O)[C@@H](Cc3ccc(C(F)(F)F)cc3)C(=O)N(C)CC(=O)N[C@@H](CCc3cc(F)c(C(F)(F)F)c(F)c3)C(=O)N2C1 [PP0585] | 0.022 | B (a compound having 3 or more and less than 10 is denoted as B) | B (a compound having 3 or more and less than 10 is denoted as B)
CCO[C@@H]1C[C@H]2C(=O)NC3(CCCC3)C(=O)N(C)[C@@H](C3CCCC3)C(=O)N(C)[C@H](C(=O)N(C)C)CC(=O)N(C)[C@@H](C)C(=O)N[C@@H]([C@@H](C)CC)C(=O)N(C)CC(=O)N(C)[C@H]3CCCCN(C3=O)[C@@H](Cc3ccc(C(F)(F)F)cc3)C(=O)N(C)CC(=O)N[C@@H](CCc3cc(F)c(C(F)(F)F)c(F)c3)C(=O)N2C1 [PP0586] | 0.01 | C (A compound having a KD ratio of 0.1 or more and less than 3 is denoted as C) | B (a compound having 3 or more and less than 10 is denoted as B)
CCO[C@@H]1C[C@H]2C(=O)NC3(CCC3)C(=O)N(C)[C@@H](C3CCCC3)C(=O)N(C)[C@H](C(=O)N(C)C)CC(=O)N(C)[C@@H](C)C(=O)N[C@@H]([C@@H](C)CC)C(=O)N(C)CC(=O)N(C)[C@H]3CCCCN(C3=O)[C@@H](Cc3ccc(C(F)(F)F)cc3)C(=O)N(C)CC(=O)N[C@@H](CCc3cc(F)c(C(F)(F)F)c(F)c3)C(=O)N2C1 [PP0587] | 0.014 | C (A compound having a KD ratio of 0.1 or more and less than 3 is denoted as C) | C (A compound having a KD ratio of 0.1 or more and less than 3 is denoted as C)
CC[C@H](C)[C@@H]1NC(=O)[C@H](CC(C)C)N(CC)C(=O)C[C@@H](C(=O)N2CCOCC2)N(C)C(=O)[C@H](C2CCCC2)N(C)C(=O)C2(CCCC2)NC(=O)[C@@H]2CCCN2C(=O)[C@H](CCc2cc(F)c(C(F)(F)F)c(F)c2)NC(=O)CN(C)C(=O)[C@H](Cc2ccc(C(F)(F)F)cc2)N2CCCC[C@@H](C2=O)N(C)C(=O)CN(C)C1=O [PP0588] | 0.11 | B (a compound having 3 or more and less than 10 is denoted as B) | B (a compound having 3 or more and less than 10 is denoted as B)
